The values that follow are results of earlier work, collected in patent publication US20140234433A1, “Topical Composition for Stimulating Epidermis and Dermis Layers of the Skin” (priority 2013, published 2014).

Molecules are shown by their SMILES.

The data set deals with facial skin.

Regarding `CC1=C(/C=C/C(C)=C/C=C/C(C)=C/C(=O)O)C(C)(C)CCC1` [tretinoin], the histological characteristics entry (0.001% dosage) was “same histological characteristics as the inactive base material”. Moreover, under “0.01% and 0.05%”, the histological response result is listed as “increased response with an increase in tretinoin concentrations”. Also, for the setting “24 weeks”, the epidermal thickness entry is recorded as “increase”, the “findings in the dermis” value was “no positive findings”, the melanocytes result is “decrease” and the stratum corneum result is listed as “stratum corneum compactness”. Moreover, the granular layer thickness result (24 weeks, 1 layer to 2-3 layers) is listed as “increase”. The dermal changes entry (48 weeks of treatment) is reported as “limited”. Further, the “subjects showing erythema, scaling and peeling, and reporting stinging” value (average of the studies) was “approximately 80%”. In addition, the “dermal findings on continued use” value (continued use up to 4 years) is “decrease in elastin and perivascular inflammation”.
